Data from US10105357B2, “Indication of antibiotic drugs for preparation of cancer inhibition pharmaceutical composition” (LAUNX BIOMEDICAL CO., LTD., priority 2014, dated 2018).
Structures can show the parent of a compound that is named as a salt. Where two headings read alike, the source gives them in different places.

Tests used:
Type in all cases: cell-based, human
[1] = system: HI650 (Lung Adenocarcinoma); assay: Cell viability analysis, lung cancer HI650; settings: for viability at 10 µM: Homo sapiens
[2] = system: A549 (Lung Adenocarcinoma); assay: Cell viability analysis, lung cancer A549; settings: for viability at 10 µM: Homo sapiens
[3] = system: AGS (Gastric Adenocarcinoma); assay: Cell viability analysis, gastric cancer AGS; settings: for viability at 10 µM: Homo sapiens
[4] = system: MKN-45 (Gastric Adenocarcinoma); assay: Cell viability analysis, gastric cancer MKN-45; settings: for viability at 10 µM: Homo sapiens
[5] = system: HepG2 (Hepatocellular Carcinoma); assay: Cell viability analysis, hepatic cancer HepG2; settings: for viability at 10 µM: Homo sapiens
[6] = system: LoVo (Colorectal Adenocarcinoma); assay: Cell viability analysis, colon cancer LoVo; settings: for viability at 10 µM: Homo sapiens, LoVo
[7] = system: A375 (Amelanotic Melanoma); assay: Cell viability analysis, skin cancer A375; settings: for viability at 10 µM: Homo sapiens
[8] = system: HeLa (Cervix Adenocarcinoma); assay: Cell viability analysis, cervical cancer HeLa; settings: for viability at 10 µM: Homo sapiens, HeLa
[9] = system: PC3 (p53−) (Prostate Adenocarcinoma); assay: Cell viability analysis, prostate cancer PC3; settings: for viability at 10 µM: Homo sapiens, 72 h
[10] = system: TSGH-8301 (Urinary Bladder Carcinoma); assay: Cell viability analysis, bladder cancer TSGH-8301; settings: for viability at 10 µM: Homo sapiens
[11] = system: MCF7 (Mammary Gland, Adenocarcinoma); assay: Cell viability analysis, breast cancer MCF7; settings: for viability at 10 µM: Homo sapiens
[12] = system: HL-60 (Acute Promyelocytic Leukemia); assay: Cell viability analysis, leukemia HL-60; settings: for viability at 10 µM: Homo sapiens
[13] = NCI-H1650, 72 h, drug 10 μM, 72 hours, WST-1, OD450 nm, read-out: cell viability (survival rate), H1650
[14] = A549, 72 h, drug 10 μM, 72 hours, WST-1, OD450 nm, read-out: cell viability (survival rate), A549
[15] = 72 h, drug 10 μM, 72 hours, WST-1, OD450 nm, read-out: cell viability (survival rate), AGS
[16] = MKN-45, 72 h, drug 10 μM, 72 hours, WST-1, OD450 nm, read-out: cell viability (survival rate), MKN-45
[17] = HepG2, 72 h, drug 10 μM, 72 hours, WST-1, OD450 nm, read-out: cell viability (survival rate), HepG2
[18] = 72 h, read-out: cell viability (survival rate), LoVo, drug 10 μM, 72 hours, WST-1, OD450 nm
[19] = A-375, 72 h, drug 10 μM, 72 hours, WST-1, OD450 nm, read-out: cell viability (survival rate), A375
[20] = 72 h, drug 10 μM, 72 hours, WST-1, OD450 nm, read-out: cell viability (survival rate), HeLa
[21] = drug 10 μM, 72 hours, WST-1, OD450 nm, read-out: cell viability (survival rate), PC3
[22] = 72 h, drug 10 μM, 72 hours, WST-1, OD450 nm, read-out: cell viability (survival rate), TSGH
[23] = HL-60, 72 h, drug 10 μM, 72 hours, WST-1, OD450 nm, read-out: cell viability (survival rate), HL-60
[24] = drug 10 μM, 72 hours, WST-1, OD450 nm

## CN(CCOc1ccc(CC2SC(=O)NC2=O)cc1)c1ccccn1 (centres unmarked) [Rosiglitazone maleate]
[1]; [13]
  viability at 10 µM: 87.7%
[2]; [14]
  viability at 10 µM: 79.1%
[3]; [15]
  viability at 10 µM: 113%
[4]; [16]
  viability at 10 µM: 73.7%
[5]; [17]
  viability at 10 µM: 95.1%
[6]; [18]
  viability at 10 µM: 93.5%
[7]; [19]
  viability at 10 µM: 70.3%
[8]; [20]
  viability at 10 µM: 83.3%
[9]; [21]
  viability at 10 µM: 121%
[10]; [22]
  viability at 10 µM: 85.2%
[11]; MCF7, 72 h, drug 10 μM, 72 hours, WST-1, OD450 nm, read-out: cell viability (survival rate), MCF7
  viability at 10 µM: 114%
[12]; [23]
  viability at 10 µM: 109%

## Cc1cc(=O)[nH]c(=S)[nH]1 [Methylthiouracil]
[1]; [13]
  viability at 10 µM: 90.2%
[2]; [14]
  viability at 10 µM: 164%
[3]; [15]
  viability at 10 µM: 84.8%
[4]; [16]
  viability at 10 µM: 79.9%
[5]; [17]
  viability at 10 µM: 106%
[6]; [18]
  viability at 10 µM: 98.9%
[7]; [19]
  viability at 10 µM: 72.1%
[8]; [20]
  viability at 10 µM: 88.3%
[9]; [21]
  viability at 10 µM: 151%
[10]; [22]
  viability at 10 µM: 83.6%
[12]; [23]
  viability at 10 µM: 106%

## CN(C/C=C/C#CC(C)(C)C)Cc1cccc2ccccc12.Cl [Terbinafine HCl (Lamisil)]
[1]; [24]
  cell viability (survival rate), H1650: 40.6
[2]; [24]
  cell viability (survival rate), A549: 52.3
[3]; [24]
  cell viability (survival rate), AGS: 90.6
[4]; [24]
  cell viability (survival rate), MKN-45: 81.8
[5]; [24]
  cell viability (survival rate), HepG2: 91.1
[6]; [24]
  cell viability (survival rate), LoVo: 71.4
[7]; [24]
  cell viability (survival rate), A375: 92.5
[8]; [24]
  cell viability (survival rate), HeLa: 75.4
[9]; [24]
  cell viability (survival rate), PC3: 70.8
[10]; [24]
  cell viability (survival rate), TSGH: 50.6
[11]; [24]
  cell viability (survival rate), MCF7: 67.7
[12]; [24]
  cell viability (survival rate), HL-60: 86.5

## CCC[C@@H]1C[C@@H](C(=O)N[C@@H]([C@H]2O[C@H](SC)[C@H](OP(=O)(O)O)[C@@H](O)[C@H]2O)[C@H](C)Cl)N(C)C1 [Clindamycin phosphate]
[1]; NCI-H1650, 72 h, read-out: cell viability (survival rate), H1650, drug 10 μM, 72 hours, WST-1, OD450 nm
  viability at 10 µM: 87%
[2]; A549, 72 h, read-out: cell viability (survival rate), A549, drug 10 μM, 72 hours, WST-1, OD450 nm
  viability at 10 µM: 31%
[3]; 72 h, read-out: cell viability (survival rate), AGS, drug 10 μM, 72 hours, WST-1, OD450 nm
  viability at 10 µM: 91.6%
[4]; MKN-45, 72 h, read-out: cell viability (survival rate), MKN-45, drug 10 μM, 72 hours, WST-1, OD450 nm
  viability at 10 µM: 85.6%
[5]; HepG2, 72 h, read-out: cell viability (survival rate), HepG2, drug 10 μM, 72 hours, WST-1, OD450 nm
  viability at 10 µM: 90.2%
[6]; [18]
  viability at 10 µM: 44.4%
[7]; A-375, 72 h, read-out: cell viability (survival rate), A375, drug 10 μM, 72 hours, WST-1, OD450 nm
  viability at 10 µM: 81.3%
[8]; 72 h, read-out: cell viability (survival rate), HeLa, drug 10 μM, 72 hours, WST-1, OD450 nm
  viability at 10 µM: 61.4%
[9]; read-out: cell viability (survival rate), PC3, drug 10 μM, 72 hours, WST-1, OD450 nm
  viability at 10 µM: 40%
[10]; 72 h, read-out: cell viability (survival rate), TSGH, drug 10 μM, 72 hours, WST-1, OD450 nm
  viability at 10 µM: 79.6%
[11]; MCF7, 72 h, read-out: cell viability (survival rate), MCF7, drug 10 μM, 72 hours, WST-1, OD450 nm
  viability at 10 µM: 38.3%
[12]; HL-60, 72 h, read-out: cell viability (survival rate), HL-60, drug 10 μM, 72 hours, WST-1, OD450 nm
  viability at 10 µM: 110%

## O=C([O-])[C@H](O)[C@@H](O)[C@H](O)[C@H](O)CO.[Na+] [Sodium Gluconate]
[1]; NCI-H1650, drug 10 μM, 72 hours, WST-1, OD450 nm, read-out: cell viability (survival rate), H1650
  viability at 10 µM: 94.6%
[2]; A549, drug 10 μM, 72 hours, WST-1, OD450 nm, read-out: cell viability (survival rate), A549
  viability at 10 µM: 91.9%
[3]; drug 10 μM, 72 hours, WST-1, OD450 nm, read-out: cell viability (survival rate), AGS
  viability at 10 µM: 90.8%
[4]; MKN-45, drug 10 μM, 72 hours, WST-1, OD450 nm, read-out: cell viability (survival rate), MKN-45
  viability at 10 µM: 93%
[5]; HepG2, drug 10 μM, 72 hours, WST-1, OD450 nm, read-out: cell viability (survival rate), HepG2
  viability at 10 µM: 95.3%
[6]; drug 10 μM, 72 hours, WST-1, OD450 nm, read-out: cell viability (survival rate), LoVo
  viability at 10 µM: 100%
[7]; A-375, drug 10 μM, 72 hours, WST-1, OD450 nm, read-out: cell viability (survival rate), A375
  viability at 10 µM: 116%
[8]; drug 10 μM, 72 hours, WST-1, OD450 nm, read-out: cell viability (survival rate), HeLa
  viability at 10 µM: 73%
[10]; drug 10 μM, 72 hours, WST-1, OD450 nm, read-out: cell viability (survival rate), TSGH
  viability at 10 µM: 97.4%
[11]; MCF7, drug 10 μM, 72 hours, WST-1, OD450 nm, read-out: cell viability (survival rate), MCF7
  viability at 10 µM: 94.7%
[12]; HL-60, drug 10 μM, 72 hours, WST-1, OD450 nm, read-out: cell viability (survival rate), HL-60
  viability at 10 µM: 91.2%

## Fc1ccc([C@@H]2CCNC[C@H]2COc2ccc3c(c2)OCO3)cc1 [paroxetine]
[10]; 72 h, read-out: The results of antibiotic drug inhibiting cancer cell lines (cell viability analysis), TSGH-8301, TSGH-8301, repeated experiment
  viability at 10 µM: 38.4%
